Results taken from PubChem BioAssay AID248 (DTP/NCI, 2004).
Where “and” joins values, the source holds several entries; their conditions need not be identical. Identical values can stand only once. Toxic doses and inconclusive results are not listed. No stated cut-off is given here; in the data, active means T/C of 150% or more; inactive means T/C below 125%.

Tested on: L1210 leukemia ip in BDF1 mice, survival T/C
Assay: NCI In Vivo Anticancer Drug Screen. Data for tumor model L1210 Leukemia (intraperitoneal) in B6D2F1 (BDF1) mice
Settings: endpoint: mean survival time, higher = longer survival
Method in brief: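 Transplanted-tumor mice were given test agent; controls received vehicle only. Survival readings from the two groups were divided (treated over control).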

[1] = dose: 100.0 mg/kg/injection, schedule: Q01DX001 (ip), vehicle: saline
[2] = dose: 100.0 mg/kg/injection, schedule: Q01DX009 (ip), vehicle: saline
[3] = dose: 100.0 mg/kg/injection, schedule: Q04DX003 (ip), vehicle: saline
[4] = dose: 200.0 mg/kg/injection, schedule: Q01DX001 (ip), vehicle: saline
[5] = dose: 200.0 mg/kg/injection, schedule: Q01DX009 (ip), vehicle: saline
[6] = dose: 200.0 mg/kg/injection, schedule: Q04DX003 (ip), vehicle: saline
[7] = dose: 400.0 mg/kg/injection, schedule: Q01DX001 (ip), vehicle: saline
[8] = dose: 100.0 mg/kg/injection, schedule: Q04DX003 (ip), vehicle: saline with Tween-80
[9] = dose: 200.0 mg/kg/injection, schedule: Q04DX003 (ip), vehicle: saline with Tween-80
[10] = dose: 100.0 mg/kg/injection, schedule: Q01DX009 (ip), vehicle: saline with Tween-80
[11] = dose: 100.0 mg/kg/injection, schedule: Q04DX002 (ip), vehicle: saline with Tween-80
[12] = dose: 200.0 mg/kg/injection, schedule: Q01DX009 (ip), vehicle: saline with Tween-80
[13] = dose: 200.0 mg/kg/injection, schedule: Q04DX002 (ip), vehicle: saline with Tween-80
[14] = dose: 400.0 mg/kg/injection, schedule: Q01DX009 (ip), vehicle: saline with Tween-80
[15] = dose: 400.0 mg/kg/injection, schedule: Q04DX003 (ip), vehicle: saline with Tween-80
[16] = dose: 100.0 mg/kg/injection, schedule: Q01DX001 (ip), vehicle: carboxymethylcellulose (CMC)
[17] = dose: 200.0 mg/kg/injection, schedule: Q01DX001 (ip), vehicle: carboxymethylcellulose (CMC)
[18] = dose: 100.0 mg/kg/injection, schedule: Q04DX003 (ip), vehicle: Klucel (hydroxypropylcellulose) (HPC)
[19] = dose: 200.0 mg/kg/injection, schedule: Q04DX003 (ip), vehicle: Klucel (hydroxypropylcellulose) (HPC)
[20] = dose: 400.0 mg/kg/injection, schedule: Q04DX003 (ip), vehicle: Klucel (hydroxypropylcellulose) (HPC)
[21] = dose: 50.0 mg/kg/injection, schedule: Q01DX009 (ip), vehicle: saline with Tween-80

Measured: T/C

CC1(C)OC2C(C(=O)N(CCO)CCO)OC(n3cnc4c(N)ncnc43)C2O1 (stereo not drawn)
inactive: dose: 75.0 mg/kg/injection, schedule: Q01DX001 (ip), vehicle: saline 102 % of control | dose: 75.0 mg/kg/injection, schedule: Q04DX003 (ip), vehicle: saline 106 % of control | dose: 150.0 mg/kg/injection, schedule: Q01DX001 (ip), vehicle: saline 104 % of control | dose: 150.0 mg/kg/injection, schedule: Q04DX003 (ip), vehicle: saline 106 % of control | dose: 300.0 mg/kg/injection, schedule: Q01DX001 (ip), vehicle: saline 101 % of control | dose: 300.0 mg/kg/injection, schedule: Q04DX003 (ip), vehicle: saline 107 % of control

COc1cc(I)c(CC(=O)O)cc1OC
inactive: [1] 97 % of control | [2] 93 % of control | [3] 96 % of control | [4] 97 % of control | [5] 91 % of control | [6] 96 % of control | [7] 96 % of control | dose: 400.0 mg/kg/injection, schedule: Q01DX009 (ip), vehicle: saline 96 % of control | dose: 400.0 mg/kg/injection, schedule: Q04DX003 (ip), vehicle: saline 90 % of control

O=C(Cl)c1ccc([N+](=O)[O-])cc1
inactive: [8] 102 % of control | [9] 101 % of control

Cc1cc(C)c2ccc(Cl)nc2n1
inactive: dose: 25.0 mg/kg/injection, schedule: Q01DX009 (ip), vehicle: Klucel (hydroxypropylcellulose) (HPC) 97 % of control | dose: 50.0 mg/kg/injection, schedule: Q01DX009 (ip), vehicle: Klucel (hydroxypropylcellulose) (HPC) 99 % of control

COc1ccc(OC)c(NC(=O)c2ccccc2Cl)c1
inactive: [10] 93 % of control and 102 % of control | [11] 103 % of control and 111 % of control | [8] 95 % of control | [12] 94 % of control and 101 % of control | [13] 93 % of control and 100 % of control | [9] 94 % of control | [14] 96 % of control | dose: 400.0 mg/kg/injection, schedule: Q04DX002 (ip), vehicle: saline with Tween-80 103 % of control and 104 % of control | [15] 97 % of control

Cc1cccc(/C2=C/CCCCCC2)c1
inactive: dose: 37.5 mg/kg/injection, schedule: Q01DX009 (ip), vehicle: saline 100 % of control | dose: 75.0 mg/kg/injection, schedule: Q01DX001 (ip), vehicle: acetone 89 % of control | dose: 75.0 mg/kg/injection, schedule: Q01DX009 (ip), vehicle: saline 103 % of control | dose: 150.0 mg/kg/injection, schedule: Q01DX001 (ip), vehicle: acetone 88 % of control | dose: 150.0 mg/kg/injection, schedule: Q01DX009 (ip), vehicle: saline 115 % of control | dose: 225.0 mg/kg/injection, schedule: Q01DX009 (ip), vehicle: acetone 92 % of control | dose: 300.0 mg/kg/injection, schedule: Q01DX001 (ip), vehicle: acetone 93 % of control

Nc1cc2c(cc1I)-c1ccccc1C2=O
inactive: [16] 94 % of control | [17] 89 % of control | dose: 400.0 mg/kg/injection, schedule: Q01DX001 (ip), vehicle: carboxymethylcellulose (CMC) 97 % of control

OC1(C2C=CC=C2)c2ccccc2C=Cc2ccccc21
inactive: dose: 9.38 mg/kg/injection, schedule: Q01DX001 (ip), vehicle: other 100 % of control | dose: 18.75 mg/kg/injection, schedule: Q01DX001 (ip), vehicle: other 100 % of control | dose: 37.5 mg/kg/injection, schedule: Q01DX001 (ip), vehicle: other 100 % of control

c1ccc(OP(Oc2ccccc2)c2ccccc2)cc1
inactive: [2] 108 % of control | [18] 105 % of control | [5] 115 % of control | [19] 102 % of control | [20] 98 % of control

COc1ccc2c(c1)sc(=N)n2C
inactive: dose: 100.0 mg/kg/injection, schedule: Q04DX002 (ip), vehicle: saline 97 % of control | dose: 200.0 mg/kg/injection, schedule: Q04DX002 (ip), vehicle: saline 93 % of control

CNc1c2c(nc3ccccc13)CCCC2
inactive: dose: 1.25 mg/kg/injection, schedule: Q01DX009 (ip), vehicle: saline with Tween-80 93 % of control | dose: 1.25 mg/kg/injection, schedule: Q04DX003 (ip), vehicle: saline with Tween-80 97 % of control | dose: 2.5 mg/kg/injection, schedule: Q01DX009 (ip), vehicle: saline with Tween-80 91 % of control | dose: 2.5 mg/kg/injection, schedule: Q04DX003 (ip), vehicle: saline with Tween-80 108 % of control | dose: 5.0 mg/kg/injection, schedule: Q01DX009 (ip), vehicle: saline with Tween-80 89 % of control | dose: 5.0 mg/kg/injection, schedule: Q04DX003 (ip), vehicle: saline with Tween-80 102 % of control

CC12CCC(C/C1=C\C#N)C(C)(C)O2 (stereo not drawn)
inactive: [18] 98 % of control | [19] 98 % of control | [20] 101 % of control

O=c1oc2ccccc2c2c1C(c1ccccc1)C=C(c1ccccc1)O2 (stereo not drawn)
inactive: [8] 89 % of control | [9] 91 % of control | [15] 92 % of control

O=C1OC(c2ccccc2)=N/C1=C\c1ccc2c(c1)OCO2
inactive: [16] 95 % of control | [17] 98 % of control

NC1=NCN(c2ccc(OCCOc3ccc([N+](=O)[O-])cc3)cc2)C(N)=N1
inactive: dose: 100.0 mg/kg/injection, schedule: Q01DX001 (ip), vehicle: Klucel (hydroxypropylcellulose) (HPC) 107 % of control | dose: 200.0 mg/kg/injection, schedule: Q01DX001 (ip), vehicle: Klucel (hydroxypropylcellulose) (HPC) 102 % of control | dose: 400.0 mg/kg/injection, schedule: Q01DX001 (ip), vehicle: Klucel (hydroxypropylcellulose) (HPC) 97 % of control

N=C(N)SCC(O)c1ccccc1 (stereo not drawn)
inactive: dose: 100.0 mg/kg/injection, schedule: Q01DX009 (ip), vehicle: Klucel (hydroxypropylcellulose) (HPC) 104 % of control | dose: 200.0 mg/kg/injection, schedule: Q01DX009 (ip), vehicle: Klucel (hydroxypropylcellulose) (HPC) 95 % of control

Cc1ccc(NC(=O)CC#N)c(C)c1
inactive: [21] 95 % of control | [10] 113 % of control | [11] 101 % of control | [12] 113 % of control | [13] 101 % of control

OC1(c2ccccc2)c2ccccc2C(O)(c2ccccc2)c2c1ccc1ccccc21 (stereo not drawn)
inactive: [10] 93 % of control | [14] 93 % of control

NC(N)=Nc1ccccc1
inactive: [21] 107 % of control | [10] 101 % of control | [3] 101 % of control | [12] 104 % of control | [6] 115 % of control

CC(CCO)CCC1OC1(C)C (stereo not drawn)
inactive: [1] 103 % of control | [4] 105 % of control | [7] 103 % of control

O/N=C\c1ccccc1Cl
inactive: [10] 100 % of control | [18] 100 % of control | [12] 105 % of control | [19] 100 % of control | [20] 96 % of control

COC(=O)C1=CO[C@H](C)[C@@H]2CN3CCc4c([nH]c5ccccc45)[C@@H]3C[C@H]12
inactive: dose: 17.5 mg/kg/injection, schedule: Q01DX Z (ip), vehicle: carboxymethylcellulose (CMC) 98 % of control
